This note sets out measurements from patent US20070219238A1 (priority 2004, published 2007).

SMILES strings stand for the structures. Where two headings read alike, the source gives them in different places.

The test system of the assay is Phytophthora infestans. In kind it is in vivo. The note with it: individual active compound, potted tomato plants, protective, evaluated after 6 days.

For `C[C@H](Nc1c(-c2c(F)cc(F)cc2F)c(Cl)nc2ncnn12)C(F)(F)F` [comparative compound B], the “Efficacy in % of the untreated control” value (50 ppm in the spray liquor) was found to be 0%.

Turning to `[Cl-].[Cu+2].[Cu+2].[OH-].[OH-].[OH-]` [II-1, copper oxychloride], the “Efficacy in % of the untreated control” value reads like this: (50 ppm in the spray liquor) 0%; (100 ppm in the spray liquor) 22%.

Take `[Cu+2].[OH-].[OH-]` [II-3, copper hydroxide]: the “Efficacy in % of the untreated control” value (50 ppm in the spray liquor) is listed as 11% and the “Efficacy in % of the untreated control” value (100 ppm in the spray liquor) was found to be 22%.

As to `CC1CCN(c2c(-c3c(F)cccc3Cl)c(Cl)nc3ncnn23)CC1` [comparative compound A], the “Efficacy in % of the untreated control” value (50 ppm in the spray liquor) is recorded as 0%.

Regarding `CC1CCN(c2c(-c3c(F)cc(F)cc3F)c(Cl)nc3ncnn23)CC1` [I, 5-chloro-7-(4-methylpiperidin-1-yl)-6-(2,4,6-trifluorophenyl)[1,2,4]triazolo [1,5-a]pyrimidine], the “Efficacy in % of the untreated control” value (50 ppm in the spray liquor) turned out to be 0%.

Regarding `O=C([O-])[O-].[Cu+2].[Cu+2].[OH-].[OH-]` [II-2, (basic) copper carbonate], the “Efficacy in % of the untreated control” value is reported as 0% (50 ppm in the spray liquor) and 11% (100 ppm in the spray liquor).
